What was measured:
[1] = system: HTB-5 bladder cancer cells; test: tissue or blood
[2] = system: HCT-116 colon cancer cells; test: cells; settings: Homo sapiens
K562 leukemia cells = test: cells; settings: Homo sapiens
[3] = system: UM-UC3 bladder cancer cells; test: cells; settings: Homo sapiens, UMUC3
[4] = system: screened cancer cell lines; test: inhibitory activity against a variety of cancer cell lines; format: cell-based
[5] = system: Hsp90 client proteins in HCT-116 cells; test: western blot analysis following treatment of HCT-116 cells; format: cell-based
Method: (§1) 0.5 μM GDA was included as positive control and vehicle (D=DMSO) as negative control. […] Hsp90α siRNA was included as positive control and vehicle (lipofectamine) as negative control.

hERG channel = test: western blot analysis of hERG channel trafficking in hERG-HEK293 cells; format: cell-based; settings: HEK293 cells expressing the hERG channel
Method: as §1

MOLM-13 leukemia cells = test: cells; settings: Homo sapiens
[6] = system: HTB-9 bladder cancer cells; test: tissue or blood
Hsp90β = Hsp90β (Homo sapiens (Human), UniProt P08238); test: fluorescence polarization (FP) assay, competitive displacement of FITC labeled Geldanamycin; format: binding; settings: FP assay
Sequence of Hsp90β (P08238 whole entry, canonical isoform): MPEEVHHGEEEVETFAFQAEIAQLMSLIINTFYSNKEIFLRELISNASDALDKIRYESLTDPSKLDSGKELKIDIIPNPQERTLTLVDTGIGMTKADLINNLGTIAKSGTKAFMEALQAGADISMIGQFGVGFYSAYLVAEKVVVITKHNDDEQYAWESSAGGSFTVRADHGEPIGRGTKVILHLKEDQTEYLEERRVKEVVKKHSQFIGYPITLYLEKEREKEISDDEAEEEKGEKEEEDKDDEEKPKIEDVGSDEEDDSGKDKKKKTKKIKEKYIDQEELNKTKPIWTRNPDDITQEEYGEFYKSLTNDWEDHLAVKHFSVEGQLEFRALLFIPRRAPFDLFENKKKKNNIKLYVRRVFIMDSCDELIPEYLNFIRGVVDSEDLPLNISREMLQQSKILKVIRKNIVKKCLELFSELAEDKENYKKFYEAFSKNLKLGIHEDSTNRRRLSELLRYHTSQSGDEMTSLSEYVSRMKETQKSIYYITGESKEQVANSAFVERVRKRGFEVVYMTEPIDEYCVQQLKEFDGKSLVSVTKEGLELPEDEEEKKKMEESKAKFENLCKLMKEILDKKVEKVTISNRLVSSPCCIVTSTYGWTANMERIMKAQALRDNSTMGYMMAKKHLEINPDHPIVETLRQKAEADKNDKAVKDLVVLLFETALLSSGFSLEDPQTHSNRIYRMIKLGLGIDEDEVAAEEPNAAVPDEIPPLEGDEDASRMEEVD
Method: Once prepared, the compounds were evaluated for their binding affinities against the cytosolic isoforms, Hsp90α and Hsp90β by measuring their ability to competitively displace FITC labeled Geldanamycin (GDA) in a fluorescence polarization assay (apparent Kd's listed in Table 1). […] The alkyne (4k) was investigated to determine whether a linear substituent could project into the subpocket and affect selectivity.

[7] = system: HT1376 bladder cancer cells; test: cells; settings: Homo sapiens, HT-1376

CCCC1Cc2cc(-n3nc(C)c4c3CC(C)(C)CC4=O)cc(N[C@H]3CC[C@H](O)CC3)c2C(=O)N1 (some centres unmarked) [Compound 6a, 8-(((1r,4r)-4-hydroxycyclohexyl)amino)-3-propyl-6-(3,6,6-trimethyl-4-oxo-4,5,6,7-tetrahydro-1H-indazol-1-yl)-3,4-dihydroisoquinolin-1(2H)-one]
IC50 [1]: 0.935 µM | IC50 [2]: 0.265 µM | IC50 (K562 leukemia cells): 0.498 µM | IC50 [3]: 1.05 µM | IC50 values against the screened cancer cell lines (in words) [4]: submicromolar | CDK4, CDK6, cIAP1 and CXCR4 levels (Hsp90β-dependent clients) [5]: induced the degradation | total levels of Akt-1 and Raf-1 [5]: not affected | Hsf-1, Hsp70 and Hsp90 levels ([5]; 24 h exposure): induced the degradation | hERG channel maturation and trafficking (hERG channel): not affected | IC50 (MOLM-13 leukemia cells): 0.0394 µM | IC50 [6]: 0.811 µM | affinity for Hsp90β (in words) (Hsp90β): increased binding affinity | selectivity for Hsp90β over Hsp90α (in words) (Hsp90β): enhanced selectivity | IC50 [7]: 0.716 µM
